Results: patent publication US20130030045A1, “METHOD OF PREVENTING AND TREATING OSTEOPOROSIS” (priority 2011, published 2013)
Read-outs that look alike come from different tables or passages of the source. Blank lines part the entries; values can stand above or below the compound they belong to.

Tests used:
SaOS-2 cells = test: Calcium staining for calcium deposition (CaP assay) of SaOS-2 cells; type: cell-based, human; conditions: 10 μM, 7 day; data not shown
MC3T3-E1 cells [1] = test: MTT assay, MC3T3-E1 cell growth; conditions: 1 day
From the text: In an embodiment, different concentrations of flavone, 6-methoxy flavone, 7-methoxy flavone, 6-hydroxy flavone and 7-hydroxy flavone are respectively added into 3,000 MC3T3-E1 cells per well in the cultured medium for 1 day.

MBMMφ cells [2] = test: TRAP activity assay, differentiation of MBMMφ cells induced with RANKL and M-CSF; type: cell-based, mouse; conditions: for IC50: Mus musculus, 2 days with compound, then 20 ng/ml RANKL and 10 ng/ml M-CSF for 5 days, read-out: IC50, s-TRAP activity (inhibition of differentiation of MBMMφ cells)
Method: In some embodiments of the present invention, preosteoclast cells used are obtained from bone marrow in hind leg bone of C57BL/6J Narl mice, called as MBMMφ cells (mouse bone marrow macrophages), and are cultured in alpha-MEM medium (including 10% FBS and 1× antibiotic-antimycotic solution) and then added with M-CSF (macrophage colony-stimulating factor) and RANKL (receptor for activation of nuclear factor kappa B ligand) for inducing cell differentiation and maturation.
(§1) The cultured medium for cells derived from MBMMφ differentiation is removed, and cells are added with new medium. After incubation for 1 hour, and the activity of secretory type acid phosphatase in the medium is measured. First, 30 μl medium to be measured is taken out and added with […] TRAP assay reagent (0.1 M acetate buffer, 60 mM sodium tartrate and 5 mg/ml pNPP) followed by incubating for 30 minutes at 37° C., then adding 60 μl 0.5N NaOH solution to terminate the reaction and OD value at 405 nm of each specimen being measured.
In an embodiment, different concentrations of flavone (chemical structure as shown in FIG. 2(A)), 6-methoxy flavone (FIG. 2(B)), 7-methoxy flavone (FIG. 2(C)), 6-hydroxy flavone (FIG. 2(D)) and 7-hydroxy flavone (FIG. 2(E)) are respectively added into the cultured medium of MBMMφ cells, which had been cultured in 10 ng/ml M-SCF without treating with flavone components for 5 days, for 2 days. Next, after adding 20 ng/ml RANKL and 10 ng/ml M-CSF to induce cell differentiation for another 5 days, TRAP activity assay is performed.

[3] = tested on: human mesenchymal stem cells (hMSCs); test: Calcein fluorescent test for calcium precipitation, osteogenesis of human mesenchymal stem cells; type: cell-based; conditions: FIG. 10, calcein fluorescent test
From the text: FIGS. 10(A)-10(D) respectively illustrate the effects of 6-methoxy flavone, 7-methoxyl flavone, 7-hydroxy flavone, and 6-hydroxy flavone on the osteogenesis of human mesenchymal stem cells, based on calcein fluorescent test for calcium precipitation.
Moreover, the present invention also measures the effects of methoxy flavones and hydroxyl flavones on human mesenchymal stem cells (hMSCs).

MBMMφ cells [4] = test: MTT assay, MBMMφ cell growth
Method: (§2) In an embodiment, different concentrations (0 μM, 1 μM, 5 μM, 10 μM, 15 μM, 20 μM, and 25 μM) of 7-methoxy flavone are respectively added into 3,000 MBMMφ cells/well in the cultured medium containing M-CSF for 1 day incubation. Next, MTT reagent is used to detect the OD value of cells so as to determine the growth situation of MBMMφ cells.

MC3T3-E1 cells [5] = test: Alkaline phosphatase (ALP) assay, differentiation of MC3T3-E1 cells; type: cell-based; conditions: 4 days
Method: In experiments, 10,000 cells/well are cultured with alpha-MEM medium (including 10% FBS and 1× antibiotic-antimycotic solution) for 4 days at 37° C. in 5% CO2 incubator. After adding different concentrations of methoxy flavones or hydroxy flavones to react for 4 days, the cultured medium is removed and 100 μl 4% formaldehyde is added to fix cells for 10 minutes. After washing cells, 30 μl p-nitrophenyl phosphate (pNPP) solution is added to react for 30 minutes at 37° C., and then 30 μl 0.5 N NaOH is added to stop the reaction. Finally, OD value is measured at […] using ELISA reader.
In an embodiment, different concentrations of 6-methoxy flavone and 7-methoxy flavone are respectively added into MC3T3-E1 cells (a kind of preosteoblast cells) in alpha-MEM medium (containing 10% FBS, 1× antibiotic-antimycotic solution, 10 mM β-glycerophsphate, 50 μg/ml VitC, 10^−7 M dexamethasone) for 4 days to induce cell osteogenic differentiation and maturation. Because differentiated MC3T3-E1 cells will express the ALP activity, ALP activity assay is used to know the extent of cell differentiation. FIGS. 5(A) and 5(B) illustrate ALP activities at four different concentrations (1.25 μM, 2.5 μM, 5 μM, 10 μM) of 6-methoxy flavone and 7-methoxy flavone, respectively, in comparison with controls (with only PBS, or without 6-methoxy flavone or 7-methoxy flavone but with equal volume of vehicle, DMSO).
In still another embodiment, different concentrations (0.4 μM, 2 μM, 10 μM, 50 μM) of flavone, 7-methoxy flavone and 6-hydroxy flavone are respectively added into MC3T3-E1 cells in alpha-MEM medium with 10% FBS, 1× antibiotic-antimycotic solution, 10 mM β-glycerophsphate, 50 μg/ml Vitamin C, and 10^−7 M dexamethasone for 4 day incubation to induce cell differentiation and maturation. FIGS. 7(A)-7(C) illustrate ALP activities of MC3T3-E1 cells after exposed to four different concentrations of flavone, 7-methoxy flavone and 6-hydroxy flavone, respectively, in comparison with control (without flavone, 7-methoxy flavone or 6-hydroxy flavone, but with vehicle DMSO).

MC3T3-E1 cells [6] = test: Alizarin Red S stain, calcium deposition of MC3T3-E1 cells; type: cell-based; conditions: at 5 μM, 10 μM, 20 μM and 40 μM; 20 days
Method: In an embodiment, different concentrations (2.5 μM, 5 μM, 10 μM, 20 μM and 40 μM) of 7-methoxy flavone are respectively added into the cultured medium of MC3T3-E1 cell incubated for 20 days, wherein the cultured medium with 7-methoxy flavone is changed every 4 days. Next, Alizarin Red S stain is used to observe the calcification situation of MC3T3-E1 cells, and OD value at 562 nm is measured for quantitative analysis.

RAW 264.7 cells [7] = test: Toxicity to RAW 264.7 cells; type: cell-based, mouse; conditions: data not shown
RAW 264.7 cells [8] = test: TRAP activity assay, differentiation of RAW 264.7 cells; type: cell-based, mouse; conditions: at 8 μM, 16 μM, and 32 μM; compared to control
Method: as §1
In another embodiment, different concentrations of 7-methoxy flavone are respectively added into the cultured medium of RAW 264.7 cells (mouse leukaemic monocyte macrophages, another kind of preosteoclast cells) for 2 days. Next, after adding 20 ng/ml
RANKL and 10 ng/ml M-CSF to induce RAW 264.7 cell differentiation for 3 days, TRAP activity assay is then performed.

MBMMφ cells [9] = tested on: MBMMφ cells
Method: as §2

[10] = at the concentration of equal to or larger than 10 μM
[11] = at the concentration of equal to or larger than 5 μM

Structure (SMILES): O=c1cc(-c2ccccc2)oc2ccc(O)cc12 [6-hydroxy flavone]
- calcium deposition of SaOS-2 cells (SaOS-2 cells): significantly enhance calcium deposition of SaOS-2 cells
- growth of MC3T3-E1 cells (MTT, cytotoxicity) (MC3T3-E1 cells [1]; mouse): do not affect the growth of MC3T3-E1 cells
- IC50 (MBMMφ cells [2]): 7.3 ± 0.2 µM
- effect on differentiation of MBMMφ cells (s-TRAP activity) (MBMMφ cells [2]; [10]): significantly inhibit the differentiation of MBMMφ cells
- calcium deposition of hMSCs [3]: does not inhibit calcium deposition even at high concentration
- growth of MBMMφ cells (MTT, cytotoxicity) (MBMMφ cells [4]; not shown): do not influence the growth of MBMMφ cells
- effect on differentiation of MC3T3-E1 cells (ALP activity) (MC3T3-E1 cells [5]; at 4 μM and 16 μM, FIG. 6): significantly stimulate the differentiation of MC3T3-E1 cells
- effect on differentiation of MC3T3-E1 cells (ALP activity) (MC3T3-E1 cells [5]; at 10 μM and 50 μM, FIG. 7): obviously stimulate the differentiation of MC3T3-E1 cells

Structure (SMILES): O=c1cc(-c2ccccc2)oc2cc(O)ccc12 [7-hydroxy flavone]
- calcium deposition of SaOS-2 cells (SaOS-2 cells): significantly enhance calcium deposition of SaOS-2 cells
- growth of MC3T3-E1 cells (MTT, cytotoxicity) (MC3T3-E1 cells [1]; different concentrations, FIG. 8): do not affect the growth of MC3T3-E1 cells
- IC50 (MBMMφ cells [2]): 10.9 ± 1.3 µM
- effect on differentiation of MBMMφ cells (s-TRAP activity) (MBMMφ cells [2]; [10]): significantly inhibit the differentiation of MBMMφ cells
- calcium deposition of hMSCs [3]: inhibit calcium deposition on hMSCs only at high concentration
- growth of MBMMφ cells (MTT, cytotoxicity) (MBMMφ cells [4]; not shown): do not influence the growth of MBMMφ cells
- effect on differentiation of MC3T3-E1 cells (ALP activity) (MC3T3-E1 cells [5]; at 16 μM, FIG. 6): enhance effectively the cell differentiation

Now from value to compound, other results behind:

- IC50 (MBMMφ cells [2]): 5.4 ± 0.2 µM
Structure (SMILES): COc1ccc2oc(-c3ccccc3)cc(=O)c2c1 [6-methoxy flavone]
- growth of MC3T3-E1 cells (MTT, cytotoxicity) (MC3T3-E1 cells [1]; mouse): do not affect the growth of MC3T3-E1 cells
- effect on differentiation of MBMMφ cells (s-TRAP activity) (MBMMφ cells [2]; [11]): manifestly inhibit the differentiation of MBMMφ cells
- calcium deposition of hMSCs [3]: greatly inhibits calcium deposition of hMSCs
- growth of MBMMφ cells (MTT, cytotoxicity) (MBMMφ cells [4]; not shown): do not influence the growth of MBMMφ cells
- effect on differentiation of MC3T3-E1 cells (ALP activity) (MC3T3-E1 cells [5]; at 5 μM and 10 μM, FIG. 5): efficiently enhance the differentiation of MC3T3-E1 cells

- IC50 (MBMMφ cells [2]): 7.1 ± 0.6 µM
Structure (SMILES): COc1ccc2c(=O)cc(-c3ccccc3)oc2c1 [7-methoxy flavone]
- calcium deposition of SaOS-2 cells (SaOS-2 cells): significantly enhance calcium deposition of SaOS-2 cells
- growth of MC3T3-E1 cells (MTT, cytotoxicity) (MC3T3-E1 cells [1]; mouse): do not affect the growth of MC3T3-E1 cells
- calcium deposition of MC3T3-E1 cells (Alizarin Red S, OD 562 nm) (MC3T3-E1 cells [6]): effectively enhance calcium deposition of MC3T3-E1 cells
- effect on differentiation of MBMMφ cells (s-TRAP activity) (MBMMφ cells [2]; [11]): manifestly inhibit the differentiation of MBMMφ cells
- calcium deposition of hMSCs [3]: inhibit calcium deposition on hMSCs only at high concentration
- toxicity to RAW 264.7 cells (RAW 264.7 cells [7]): no toxicity to RAW 264.7 cells
- growth of MBMMφ cells (MTT, cytotoxicity) (MBMMφ cells [4]; 0-25 μM, 1 day incubation, medium containing M-CSF): does not affect the growth of MBMMφ cells
- effect on differentiation of RAW 264.7 cells (TRAP activity) (RAW 264.7 cells [8]): significantly inhibit the differentiation of RAW 264.7 cells
- effect on differentiation of MC3T3-E1 cells (ALP activity) (MC3T3-E1 cells [5]; at 4 μM and 16 μM, FIG. 6): significantly stimulate the differentiation of MC3T3-E1 cells
- effect on differentiation of MC3T3-E1 cells (ALP activity) (MC3T3-E1 cells [5]; at 5 μM and 10 μM, FIG. 5): efficiently enhance the differentiation of MC3T3-E1 cells
- effect on differentiation of MC3T3-E1 cells (ALP activity) (MC3T3-E1 cells [5]; at 10 μM and 50 μM, FIG. 7): obviously stimulate the differentiation of MC3T3-E1 cells

- IC50 (MBMMφ cells [2]): > 20 µM
Structure (SMILES): O=c1cc(-c2ccccc2)oc2ccccc12 [flavone, reference compound]
- growth of MC3T3-E1 cells (MTT, cytotoxicity) (MC3T3-E1 cells [1]; mouse): do not affect the growth of MC3T3-E1 cells
- effect on differentiation of MBMMφ cells (s-TRAP activity) (MBMMφ cells [2]; 1 μM, 5 μM, 10 μM, 20 μM, in comparison with control): does not have obvious effect
- growth of MBMMφ cells (MTT, cytotoxicity) (MBMMφ cells [9]): do not influence the growth of MBMMφ cells
- effect on differentiation of MC3T3-E1 cells (ALP activity) (MC3T3-E1 cells [5]; 0.25 μM, 1 μM, 4 μM, 16 μM, FIG. 6): does not stimulate the differentiation of MC3T3-E1 cells
- effect on differentiation of MC3T3-E1 cells (ALP activity) (MC3T3-E1 cells [5]; 0.4 μM, 2 μM, 10 μM, 50 μM, FIG. 7): does not significantly stimulate the differentiation of MC3T3-E1 cells
